Measured values reported in ChEMBL document CHEMBL5579895, “Discovery of TYRA-300: First Oral Selective FGFR3 Inhibitor for the Treatment of Urothelial Cancers and Achondroplasia” (J Med Chem, 2024).
Calls of active or inactive are those of the source. No cut-off for these calls is given here.

Assays:
[1] = Inhibition of recombinant BCR/FGFR2 (unknown origin) transduced in mouse BaF3 cells incubated for 48 hrs by Cell Titer Glo assay; type: cell-based; settings: BaF3, 48 h
[2] = Inhibition of recombinant BCR/FGFR4 (unknown origin) transduced in mouse BaF3 cells incubated for 48 hrs by Cell Titer Glo assay; type: cell-based; settings: BaF3, 48 h
[3] = Inhibition of recombinant FGFR3/BAIAP2L1 (unknown origin) transduced in mouse BaF3 cells incubated for 48 hrs by Cell Titer Glo assay; type: cell-based; settings: BaF3, 48 h
[4] = Inhibition of recombinant BCR/FGFR1 (unknown origin) transduced in mouse BaF3 cells incubated for 48 hrs by Cell Titer Glo assay; type: cell-based; settings: BaF3, 48 h
[5] = Stability in human liver microsomes assessed as half life at 1 uM incubated upto 180 mins by LC-MS/MS analysis; type: ADME, Microsome
[6] = Stability in human hepatocytes assessed as half life at 1 uM incubated upto 180 mins by LC-MS/MS analysis; type: ADME, cell-based, Hepatocyte
KG-1 = experiment: Inhibition of cell viability in human KG-1 cells harboring FGFR1-fusion incubated for 72 to 120 hrs by Cell Titer Glo assay; type: functional, cell-based
[7] = Inhibition of cell viability in human UMUC14 cells harboring FGFR3 S249C mutant incubated for 72 to 120 hrs by Cell Titer Glo assay; type: functional, cell-based
RT112/84 [8] = experiment: cells; type: functional, cell-based; settings: Homo sapiens
Description: Inhibition of cell viability in human RT112/84 cells harboring FGFR3/TACC3 fusion incubated for 72 to 120 hrs by Cell Titer Glo assay

RT112/84 [9] = experiment: Antitumor activity against human RT112/84 cells harboring FGFR3/TACC3 fusion xenografted in Balb/c nude mouse model at 15 mg/kg, po bid treated for 21 days relative to control; type: functional; settings: for inhibition in vivo at 15 mg/kg: RT112/84, 504 h, time 21 day, read-out: TGI
RT112/84 [10] = experiment: cells; type: functional, cell-based; settings: Homo sapiens; remark: listed apart in the source
Description: Inhibition of cell viability in human RT112/84 cells harboring FGFR3 V555M mutant incubated for 72 to 120 hrs by Cell Titer Glo assay

Compound	half-life at 1 µM [5]	half-life at 1 µM [6]	IC50 (RT112/84 [8])	IC50 (RT112/84 [10])	IC50 [1]	IC50 [2]	IC50 [3]	IC50 [4]	IC50 (KG-1)	IC50 [7]	inhibition in vivo at 15 mg/kg (RT112/84 [9])	Activity (RT112/84 [9]; time 21.0 day)
COc1cc2[nH]nc(-c3ccc(N4CC5(C4)CN(S(C)(=O)=O)C5)nc3)c2cc1O[C@H](C)c1c(Cl)cncc1Cl					6.9 nM	4.5 nM	0.8 nM	14 nM				
C[C@@H](Oc1ccc2[nH]nc(-c3ccc(N4CC5CC(C4)N5S(C)(=O)=O)nc3)c2c1)c1c(Cl)cncc1Cl	15 min						23 nM	338 nM				
C[C@@H](Oc1ccc2[nH]nc(-c3ccc(N4CC5(C4)CS(=O)(=O)C5)nc3)c2c1)c1c(Cl)cncc1Cl					191 nM	300 nM	26 nM	228 nM				
C[C@@H](Oc1ccc2[nH]nc(-c3cnc(N4CC5(C4)CN(S(C)(=O)=O)C5)cn3)c2c1)c1c(Cl)cncc1Cl		> 100 min			97 nM	21 nM	16 nM	189 nM				
C[C@@H](Oc1ccc2[nH]nc(-c3ccc(N4CC5(C4)CN(S(C)(=O)=O)C5)nn3)c2c1)c1c(Cl)cncc1Cl		> 100 min	27 nM		224 nM	278 nM	8.7 nM	204 nM	238 nM	34 nM		
C[C@@H](Oc1ccc2[nH]nc(-c3ccc(C4CCN(S(C)(=O)=O)CC4)nc3)c2c1)c1c(Cl)cncc1Cl	15 min						5.3 nM	99 nM				
C[C@@H](Oc1ccc2[nH]nc(-c3ccc(N4CC5(CCS(=O)(=O)CC5)C4)nc3)c2c1)c1c(Cl)cncc1Cl		86 min	8.3 nM	17 nM	132 nM	169 nM	11 nM	129 nM	332 nM	10 nM	76%	
C[C@@H](Oc1ccc2[nH]nc(-c3ccc(Cl)nc3)c2c1)c1c(Cl)cncc1Cl					451 nM	2200 nM	110 nM	1040 nM				
C[C@@H](Oc1ccc2[nH]nc(-c3ccc(N4CC5(C4)CN(S(C)(=O)=O)C5)nc3)c2c1)c1c(Cl)cnc(F)c1Cl							16 nM	258 nM				
C[C@@H](Oc1ccc2[nH]nc(/C=C/c3cnn(CCO)c3)c2c1)c1c(Cl)cncc1Cl [LY-2874455]					0.2 nM	2 nM	0.2 nM	0.5 nM				
C[C@@H](Oc1cc2c(-c3ccc(N4CC5(C4)CN(S(C)(=O)=O)C5)nc3)n[nH]c2cc1Cl)c1c(Cl)cncc1Cl					35 nM	37 nM	6.2 nM	60 nM				
C[C@@H](Oc1ccc2[nH]nc(-c3ccc(N4CC5(CCCN(S(C)(=O)=O)C5)C4)nc3)c2c1)c1c(Cl)cncc1Cl		40 min			62 nM	39 nM	6 nM	94 nM				
C[C@@H](Oc1ccc2[nH]nc(-c3ccc(N4CC5(C4)CN(S(C)(=O)=O)C5)nc3)c2c1)c1c(Cl)cccc1Cl							30 nM	405 nM				
C[C@H](Oc1ccc2[nH]nc(-c3ccc(N4CC5(C4)CN(S(C)(=O)=O)C5)nc3)c2c1)c1c(Cl)cncc1Cl							133 nM					
C[C@@H](Oc1ccc2[nH]nc(-c3cnc(N4CC5(C4)CN(S(C)(=O)=O)C5)nc3)c2c1)c1c(Cl)cncc1Cl		132 min			487 nM	128 nM	30 nM	880 nM				inactive
C[C@@H](Oc1ccc2[nH]nc(-c3ccc(N4CCC5(CCOC5)CC4)nc3)c2c1)c1c(Cl)cncc1Cl					360 nM	835 nM	48 nM	711 nM				
C[C@@H](Oc1cc2c(-c3ccc(N4CC5(C4)CN(S(C)(=O)=O)C5)nc3)n[nH]c2cc1F)c1c(Cl)cncc1Cl		> 100 min			56 nM	40 nM	6.3 nM	84 nM				
C[C@H](Oc1ccc2[nH]nc(-c3ccc(N4CC5(C4)CN(S(C)(=O)=O)C5)nc3)c2c1)c1c(Cl)cnnc1Cl							179 nM	2000 nM				
C[C@@H](Oc1ccc2[nH]nc(-c3ccc(N4CCC5(CCCO5)CC4)nc3)c2c1)c1c(Cl)cncc1Cl					503 nM	2030 nM	97 nM	872 nM				
Cc1ncc(Cl)c([C@@H](C)Oc2ccc3[nH]nc(-c4ccc(N5CC6(C5)CN(S(C)(=O)=O)C6)nc4)c3c2)c1Cl		64 min			47 nM		10 nM	176 nM				
Cc1cncc(C)c1[C@@H](C)Oc1ccc2[nH]nc(-c3ccc(N4CC5(C4)CN(S(C)(=O)=O)C5)nc3)c2c1		32 min			86 nM	52 nM	8.1 nM	135 nM				
C[C@@H](Oc1ccc2[nH]nc(-c3ccc(N4CC5(CCCS(=O)(=O)C5)C4)nc3)c2c1)c1c(Cl)cncc1Cl		85 min			33 nM	17 nM	2.5 nM	61 nM				
CCS(=O)(=O)N1CC2(CN(c3ccc(-c4n[nH]c5ccc(O[C@H](C)c6c(Cl)cncc6Cl)cc45)cn3)C2)C1					290 nM	529 nM	40 nM	390 nM				

Now from value to molecule, other results behind:

half-life at 1 µM [5]	half-life at 1 µM [6]	IC50 (RT112/84 [8])	IC50 (RT112/84 [10])	Compound	IC50 [1]	IC50 [2]	IC50 [3]	IC50 [4]	IC50 (KG-1)	IC50 [7]	inhibition in vivo at 15 mg/kg (RT112/84 [9])	Activity (RT112/84 [9]; time 21.0 day)
8.5 min				COC(=O)N1CCN(c2ccc(-c3n[nH]c4ccc(O[C@H](C)c5c(Cl)cncc5Cl)cc34)cn2)CC1	387 nM	591 nM	38 nM	556 nM				
1.1 min				C[C@@H](Oc1ccc2[nH]nc(-c3ccc(N4CCN(C(=O)N(C)C)CC4)nc3)c2c1)c1c(Cl)cncc1Cl	249 nM	307 nM	13 nM	290 nM				
3.5 min				C[C@@H](Oc1ccc2[nH]nc(-c3ccc(N4CCN(C(=O)N5CCN(C)CC5)CC4)nc3)c2c1)c1c(Cl)cncc1Cl	114 nM	148 nM	6.5 nM	113 nM				
4.7 min				CCC(=O)N1CCN(c2ccc(-c3n[nH]c4ccc(O[C@H](C)c5c(Cl)cncc5Cl)cc34)cn2)CC1			6 nM	112 nM				
	> 100 min	13 nM	36 nM	C[C@@H](Oc1ccc2[nH]nc(-c3ccc(N4CC5(CCN(S(C)(=O)=O)C5)C4)nc3)c2c1)c1c(Cl)cncc1Cl	222 nM	177 nM	16 nM	401 nM	205 nM	13 nM	22%	
	14 min			C[C@@H](Oc1ccc2[nH]nc(-c3ccc(N4CC5(CN(C(=O)N(C)C)C5)C4)nc3)c2c1)c1c(Cl)cncc1Cl	202 nM	469 nM	17 nM	234 nM				
4.8 min				C[C@@H](Oc1ccc2[nH]nc(-c3ccc(N4CCN(S(C)(=O)=O)C5(CC5)C4)nc3)c2c1)c1c(Cl)cncc1Cl			12 nM	172 nM				
	51 min			CC(C)N1CC2(CN(c3ccc(-c4n[nH]c5ccc(O[C@H](C)c6c(Cl)cncc6Cl)cc45)cn3)C2)C1	35 nM	22 nM	4.1 nM	59 nM				
5.5 min				C[C@@H](Oc1ccc2[nH]nc(-c3ccc(N4CCOCC4)nc3)c2c1)c1c(Cl)cncc1Cl	313 nM	1230 nM	36 nM	514 nM				
	27 min			CCOC(=O)N1CC2(C1)CN(c1ccc(-c3n[nH]c4ccc(O[C@H](C)c5c(Cl)cncc5Cl)cc34)cn1)C2	248 nM	418 nM	22 nM	434 nM				
	88 min			C[C@@H](Oc1ccc2[nH]nc(-c3ccc(N4CCC5(CC4)CCS(=O)(=O)C5)nc3)c2c1)c1c(Cl)cncc1Cl	193 nM	577 nM	14 nM	423 nM				
	36 min			C[C@@H](Oc1ccc2[nH]nc(-c3ccc(N4CCC5(CC4)CN(C)CC(=O)N5)nc3)c2c1)c1c(Cl)cncc1Cl	154 nM	298 nM	13 nM	208 nM				
	102 min	9.2 nM	22 nM	C[C@@H](Oc1ccc2[nH]nc(-c3ccc(N4CC5(CCS(=O)(=O)C5)C4)nc3)c2c1)c1c(Cl)cncc1Cl	111 nM	106 nM	3.2 nM	104 nM	83 nM	10 nM	56%	
3.3 min				C[C@@H](Oc1ccc2[nH]nc(-c3ccc(N4CCN(S(C)(=O)=O)CC4=O)nc3)c2c1)c1c(Cl)cncc1Cl	407 nM	412 nM	48 nM	653 nM				
9.6 min				C[C@@H](Oc1ccc2[nH]nc(-c3ccc(N4CCN(S(C)(=O)=O)CC4)nc3)c2c1)c1c(Cl)cncc1Cl	104 nM	156 nM	5.8 nM	150 nM				
5 min				C[C@@H](Oc1ccc2[nH]nc(-c3ccc(N4CCN(C)CC4)nc3)c2c1)c1c(Cl)cncc1Cl	28 nM	27 nM	3.6 nM	46 nM				
	49 min			C[C@@H](Oc1ccc2[nH]nc(-c3ccc(N4CC5(CCN5S(C)(=O)=O)C4)nc3)c2c1)c1c(Cl)cncc1Cl	131 nM	229 nM	18 nM	290 nM				
